The subject of one experiment is H4. In words: Luminescence Cell-Based Dose Response HTS to Identify Activators of 5'UTR Stem-Loop Driven Prion Protein mRNA Translation in H4 Neuroglioblastoma Cells. [Related pubchem assays: 1829 (Project Summary), 1814 (Primary HTS)]. In kind it is functional. As to conditions: Homo sapiens.
Experiment [1] in a line: Luminescence Cell-Based Dose Response HTS to Identify Activators of Luciferase Translation or Activity in H4 […] Cells. [Related pubchem assays: 1829 (Project Summary), 1814 (Primary HTS)]. In kind it is functional.
Experiment [2] is described as follows: Luminescence Cell-Based Dose Confirmation HTS to Identify Activators of 5'UTR Stem-Loop Driven Alpha-Synuclein mRNA Translation in H4 Neuroglioblastoma Cells. [Related pubchem assays: 1829 (Project Summary), 1814 (Primary HTS)]. In kind it is functional.
A short description of experiment [3]: HepG2 cell cytotoxicity, dose response, cytotoxicity control for Shn3 inhibitor project, CellTiter-Glo, cherry-picked (AID 624134). In kind it is functional, cell-based. On the technique in general: ATP-based viability assays read luminescence as a measure of living cells.
The nature of experiment [4]: Shn3 3'UTR reporter inhibitors, dose response, cell-based, Clone20 osteoblasts, firefly luciferase, cherry-picked (AID 624132).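 Further: firefly luciferase luminescence from reporter carrying the Shn3 3'UTR in osteoblasts.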 In kind it is functional.
A short description of experiment [5]: control 3'UTR Renilla luciferase suppression, dose response, counter-screen for Shn3 inhibitor project, cell-based, Clone20-Shn3RL, cherry-picked (AID 624133). In kind it is functional. In general terms: The purpose of a counterscreen is to sort out artefacts and off-target activity.
For experiment [6], the target named is T1, Short transient receptor potential channel 4 (Mus musculus, UniProt Q9QUQ5).
T1 sequence (Q9QUQ5 whole entry): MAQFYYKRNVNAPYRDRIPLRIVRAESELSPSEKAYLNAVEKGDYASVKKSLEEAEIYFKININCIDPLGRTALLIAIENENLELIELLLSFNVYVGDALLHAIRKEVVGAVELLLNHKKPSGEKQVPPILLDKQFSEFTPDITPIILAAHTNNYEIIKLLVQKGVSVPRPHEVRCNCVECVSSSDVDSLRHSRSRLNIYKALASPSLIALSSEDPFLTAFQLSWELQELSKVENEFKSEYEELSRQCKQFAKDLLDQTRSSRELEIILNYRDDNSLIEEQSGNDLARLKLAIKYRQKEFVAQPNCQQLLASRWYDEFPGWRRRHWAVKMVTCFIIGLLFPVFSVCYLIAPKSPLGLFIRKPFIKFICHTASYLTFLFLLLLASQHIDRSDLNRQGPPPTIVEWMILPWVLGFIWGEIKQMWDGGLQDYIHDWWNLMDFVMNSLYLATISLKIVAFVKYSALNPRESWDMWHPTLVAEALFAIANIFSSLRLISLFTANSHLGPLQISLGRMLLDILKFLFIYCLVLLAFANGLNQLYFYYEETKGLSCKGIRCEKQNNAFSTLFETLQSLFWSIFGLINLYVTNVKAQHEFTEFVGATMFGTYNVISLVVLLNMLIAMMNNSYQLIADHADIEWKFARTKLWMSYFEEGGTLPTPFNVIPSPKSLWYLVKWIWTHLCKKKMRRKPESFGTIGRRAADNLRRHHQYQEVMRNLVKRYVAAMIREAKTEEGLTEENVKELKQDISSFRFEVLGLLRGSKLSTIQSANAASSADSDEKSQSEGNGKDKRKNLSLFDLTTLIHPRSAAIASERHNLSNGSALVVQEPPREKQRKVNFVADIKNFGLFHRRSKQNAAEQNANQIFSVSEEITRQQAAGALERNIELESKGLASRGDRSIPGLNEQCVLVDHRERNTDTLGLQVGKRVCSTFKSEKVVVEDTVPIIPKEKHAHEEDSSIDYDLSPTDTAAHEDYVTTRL
In words: mouse TRPC4 channel activators, dose response, cell-based, HEK293 TRPC4/mu-opioid, Fluo-4 calcium (AID 434937). In kind it is functional.

The next experiment deals with Cytochrome P450 3A4 (Homo sapiens, UniProt P08684). As to conditions: Potency.
In experiment [7] the target is T2, Calpain-2 catalytic subunit (Sus scrofa, UniProt P43367).
T2 sequence (P43367 whole entry): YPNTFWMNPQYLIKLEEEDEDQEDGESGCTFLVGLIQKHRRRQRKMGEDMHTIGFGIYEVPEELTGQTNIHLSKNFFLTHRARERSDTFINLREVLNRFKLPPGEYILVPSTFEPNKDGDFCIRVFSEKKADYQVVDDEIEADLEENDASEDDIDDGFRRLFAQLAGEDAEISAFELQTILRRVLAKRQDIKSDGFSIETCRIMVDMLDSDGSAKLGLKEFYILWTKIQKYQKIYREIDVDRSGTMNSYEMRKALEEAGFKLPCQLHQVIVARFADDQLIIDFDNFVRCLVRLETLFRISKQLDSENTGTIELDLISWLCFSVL
As to the kind of experiment: pig calpain II inhibitor potency, dose response, biochemical, fluorogenic peptide substrate (AID 1420). In kind it is functional.

Experiment [8] in a line: Luminescence Cell-Based Dose Confirmation HTS to Identify Inhibitors of Platelet Dense Granule Release. [Related pubchem assays: 1663 (Primary HTS), 1678 (Summary of Project)]. In kind it is functional.
Experiment [9] has as its target Luciferin 4-monooxygenase (Photinus pyralis, UniProt P08659). In words: firefly luciferase enzyme inhibitors, dose response, biochemical, luminescence (AID 1891).
The target of experiment [10] is T3, Ubiquitin-conjugating enzyme E2 N (Homo sapiens, UniProt P61088).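 Further: Dose-response confirmation in a TR-FRET assay detecting UBC13-driven polyubiquitin chain formation, inhibition measured.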
T3 sequence (P61088 whole entry): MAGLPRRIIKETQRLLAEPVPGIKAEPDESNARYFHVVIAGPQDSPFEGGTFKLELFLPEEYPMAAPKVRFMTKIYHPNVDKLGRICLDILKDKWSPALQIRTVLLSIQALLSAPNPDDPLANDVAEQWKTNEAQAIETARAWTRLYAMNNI
In kind it is functional.

A short description of experiment [11]: cytotoxicity toward NIH3T3 fibroblasts, dose response, counter-screen, cell-based, ATP luminescence, mouse fibroblasts (AID 2010).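 Further: cells exposed to compound for about 90 hours before reading.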 In kind it is functional.
In experiment [12] the target is T4, Fatty acid synthase (Homo sapiens, UniProt P49327). In words: FAS thioesterase domain inhibitors, dose response, biochemical, kinetic fluorescence intensity (AID 624326).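 Further: rate of fluorescence rise from hydrolysis of a fluorogenic O-methyl fluorescein ester substrate.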 In kind it is functional.
Experiment [13] concerns the target T4, Fatty acid synthase. In words: FAS thioesterase domain inhibitors, dose response, biochemical, endpoint fluorescence intensity, uHTS hits (AID 624327).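 Further: fluorescence from hydrolysis of an O-methyl fluorescein acyl ester substrate by the enzyme.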 In kind it is functional.
The nature of experiment [14]: HEp-2 cell cytotoxicity, dose response, cytotoxicity control for RSV inhibitor project, HTS (AID 2410). In kind it is functional. As to conditions: human respiratory syncytial virus.
Experiment [15] can be described thus: inhibitors of intracellular T. cruzi replication, confirmation, NIH3T3 host cells, beta-gal luminescence (AID 2044).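 Further: intracellular parasites grown in NIH/3T3 mouse fibroblasts as host cells; luminescent beta-galactosidase reporter signal from transgenic T. cruzi replicating inside host cells; inhibitors lower the luminescence signal.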 In kind it is functional, cell-based.
The target in the next experiment is Paired box protein Pax-8 (Homo sapiens, UniProt Q06710). As to the kind of experiment: inhibitors of PAX8-driven TPO luciferase reporter, dose response, RMG-I cells, cherry-pick (AID 687027).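 Further: luciferase reporter driven by Pax8 target thyroperoxidase promoter measured by SteadyGlo luminescence.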 In kind it is functional, cell-based.

Active and inactive are the calls of the source.

The source of these data is ChEMBL document CHEMBL1201862, “PubChem BioAssay data set” (2004).

Sequence of Cytochrome P450 3A4 (P08684 whole entry): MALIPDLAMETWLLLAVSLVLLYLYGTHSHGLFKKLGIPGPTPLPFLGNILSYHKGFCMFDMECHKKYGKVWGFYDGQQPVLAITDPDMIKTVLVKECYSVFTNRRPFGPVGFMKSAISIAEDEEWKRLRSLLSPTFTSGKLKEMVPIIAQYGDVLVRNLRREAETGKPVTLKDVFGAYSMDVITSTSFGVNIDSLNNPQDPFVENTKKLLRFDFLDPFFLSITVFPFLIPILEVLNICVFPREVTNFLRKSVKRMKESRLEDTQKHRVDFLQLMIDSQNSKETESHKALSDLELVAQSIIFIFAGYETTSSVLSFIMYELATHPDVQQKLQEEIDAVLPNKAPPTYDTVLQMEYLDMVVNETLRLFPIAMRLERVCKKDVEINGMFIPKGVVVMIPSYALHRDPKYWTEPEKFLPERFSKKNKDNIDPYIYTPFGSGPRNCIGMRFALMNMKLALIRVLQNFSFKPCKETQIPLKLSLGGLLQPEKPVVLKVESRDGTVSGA
T4 sequence (P49327 whole entry, the tested form may be a part): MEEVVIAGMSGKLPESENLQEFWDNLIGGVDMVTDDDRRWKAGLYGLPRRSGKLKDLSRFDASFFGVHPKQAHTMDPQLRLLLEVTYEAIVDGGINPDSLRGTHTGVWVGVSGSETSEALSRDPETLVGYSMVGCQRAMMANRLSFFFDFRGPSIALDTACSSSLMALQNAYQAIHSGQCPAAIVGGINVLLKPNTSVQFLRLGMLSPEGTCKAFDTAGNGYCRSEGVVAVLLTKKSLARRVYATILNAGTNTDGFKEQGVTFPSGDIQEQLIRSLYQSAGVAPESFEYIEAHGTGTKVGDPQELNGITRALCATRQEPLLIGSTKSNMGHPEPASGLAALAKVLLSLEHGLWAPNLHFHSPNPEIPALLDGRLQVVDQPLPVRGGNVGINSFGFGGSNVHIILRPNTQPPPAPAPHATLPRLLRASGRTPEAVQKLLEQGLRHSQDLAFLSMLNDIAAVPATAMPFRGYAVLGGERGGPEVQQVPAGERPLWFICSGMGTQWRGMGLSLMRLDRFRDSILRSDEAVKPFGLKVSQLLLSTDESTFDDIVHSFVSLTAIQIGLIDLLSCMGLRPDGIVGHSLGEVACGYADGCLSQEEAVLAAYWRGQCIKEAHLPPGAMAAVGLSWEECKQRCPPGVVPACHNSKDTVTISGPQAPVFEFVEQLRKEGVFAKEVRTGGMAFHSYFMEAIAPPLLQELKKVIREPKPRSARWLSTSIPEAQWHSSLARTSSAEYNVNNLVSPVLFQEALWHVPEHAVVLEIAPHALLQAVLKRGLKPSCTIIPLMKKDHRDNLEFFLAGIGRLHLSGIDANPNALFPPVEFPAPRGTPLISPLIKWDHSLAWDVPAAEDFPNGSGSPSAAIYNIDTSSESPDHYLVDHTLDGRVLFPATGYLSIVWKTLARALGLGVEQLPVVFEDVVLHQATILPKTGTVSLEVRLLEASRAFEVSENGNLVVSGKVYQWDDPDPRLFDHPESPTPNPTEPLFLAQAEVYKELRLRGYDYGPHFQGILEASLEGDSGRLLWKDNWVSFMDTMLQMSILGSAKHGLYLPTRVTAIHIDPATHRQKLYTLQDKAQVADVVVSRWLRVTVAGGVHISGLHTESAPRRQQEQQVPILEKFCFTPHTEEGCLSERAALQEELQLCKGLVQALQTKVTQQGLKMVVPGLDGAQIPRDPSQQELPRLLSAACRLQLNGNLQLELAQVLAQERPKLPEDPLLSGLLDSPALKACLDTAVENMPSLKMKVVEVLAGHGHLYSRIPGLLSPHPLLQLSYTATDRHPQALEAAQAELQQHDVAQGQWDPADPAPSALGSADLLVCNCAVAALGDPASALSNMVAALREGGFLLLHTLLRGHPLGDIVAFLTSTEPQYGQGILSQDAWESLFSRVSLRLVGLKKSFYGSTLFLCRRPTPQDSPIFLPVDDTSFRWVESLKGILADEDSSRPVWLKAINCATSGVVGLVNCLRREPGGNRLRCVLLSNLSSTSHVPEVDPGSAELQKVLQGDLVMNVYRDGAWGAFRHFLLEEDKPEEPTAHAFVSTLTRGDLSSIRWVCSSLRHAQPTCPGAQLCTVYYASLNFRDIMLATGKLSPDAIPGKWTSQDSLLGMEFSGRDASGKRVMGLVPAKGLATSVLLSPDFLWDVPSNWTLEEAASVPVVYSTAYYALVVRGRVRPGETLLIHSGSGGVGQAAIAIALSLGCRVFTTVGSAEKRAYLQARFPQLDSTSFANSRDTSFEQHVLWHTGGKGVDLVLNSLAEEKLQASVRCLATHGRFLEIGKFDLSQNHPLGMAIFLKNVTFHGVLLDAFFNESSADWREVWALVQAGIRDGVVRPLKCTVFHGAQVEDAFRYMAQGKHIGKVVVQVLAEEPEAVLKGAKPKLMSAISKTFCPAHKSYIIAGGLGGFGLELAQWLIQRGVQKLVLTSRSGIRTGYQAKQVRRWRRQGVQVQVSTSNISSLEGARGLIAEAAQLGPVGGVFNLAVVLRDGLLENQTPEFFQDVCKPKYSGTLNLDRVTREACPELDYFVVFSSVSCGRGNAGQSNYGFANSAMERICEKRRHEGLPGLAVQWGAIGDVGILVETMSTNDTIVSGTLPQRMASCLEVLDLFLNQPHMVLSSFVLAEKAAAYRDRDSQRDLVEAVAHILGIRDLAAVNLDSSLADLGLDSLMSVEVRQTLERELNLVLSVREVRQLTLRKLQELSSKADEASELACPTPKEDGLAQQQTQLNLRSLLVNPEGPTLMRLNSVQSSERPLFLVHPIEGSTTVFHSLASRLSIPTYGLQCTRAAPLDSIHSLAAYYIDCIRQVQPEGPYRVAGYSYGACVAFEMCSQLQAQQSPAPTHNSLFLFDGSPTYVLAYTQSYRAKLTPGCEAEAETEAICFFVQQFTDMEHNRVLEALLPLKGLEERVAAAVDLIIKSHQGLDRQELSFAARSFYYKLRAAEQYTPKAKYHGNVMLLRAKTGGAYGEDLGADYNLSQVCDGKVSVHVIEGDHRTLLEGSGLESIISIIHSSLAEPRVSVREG
Sequence of Paired box protein Pax-8 (Q06710 whole entry): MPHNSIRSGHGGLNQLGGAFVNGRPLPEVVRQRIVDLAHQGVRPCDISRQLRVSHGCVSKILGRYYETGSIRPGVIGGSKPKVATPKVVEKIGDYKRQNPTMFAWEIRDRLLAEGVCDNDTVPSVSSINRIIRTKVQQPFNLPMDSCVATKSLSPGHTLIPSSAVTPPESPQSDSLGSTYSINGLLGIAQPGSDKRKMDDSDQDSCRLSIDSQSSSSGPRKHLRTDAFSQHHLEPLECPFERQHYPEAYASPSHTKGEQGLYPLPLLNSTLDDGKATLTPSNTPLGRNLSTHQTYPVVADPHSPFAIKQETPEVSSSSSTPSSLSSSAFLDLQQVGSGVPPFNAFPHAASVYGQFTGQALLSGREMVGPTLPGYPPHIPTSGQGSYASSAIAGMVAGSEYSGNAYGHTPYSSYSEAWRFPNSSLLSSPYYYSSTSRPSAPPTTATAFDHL
Sequence of Luciferin 4-monooxygenase (P08659 whole entry): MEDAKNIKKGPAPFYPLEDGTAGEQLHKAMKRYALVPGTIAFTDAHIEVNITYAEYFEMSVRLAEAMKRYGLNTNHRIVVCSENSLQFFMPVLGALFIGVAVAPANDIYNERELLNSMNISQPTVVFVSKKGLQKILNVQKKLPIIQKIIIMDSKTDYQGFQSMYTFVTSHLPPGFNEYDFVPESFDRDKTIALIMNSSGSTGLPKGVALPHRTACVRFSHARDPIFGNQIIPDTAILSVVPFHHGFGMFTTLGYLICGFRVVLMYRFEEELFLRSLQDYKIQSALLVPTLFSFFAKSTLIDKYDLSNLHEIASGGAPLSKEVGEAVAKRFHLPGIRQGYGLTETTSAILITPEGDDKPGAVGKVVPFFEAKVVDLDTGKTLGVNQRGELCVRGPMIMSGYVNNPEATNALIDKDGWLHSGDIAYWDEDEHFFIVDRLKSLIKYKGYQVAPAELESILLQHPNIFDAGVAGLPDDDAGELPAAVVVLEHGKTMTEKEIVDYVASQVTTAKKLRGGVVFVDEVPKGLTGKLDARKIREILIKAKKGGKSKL

For the compound `CC1(C)CC(=O)C2=CNc3ccccc3N=C2C1`, the EC50 (with H4; in experiment [1]; in experiment [2]) was > 120 µM (not active) throughout.
For `CN(Cc1cccc(Cl)c1Cl)C(=O)c1cccc(S(=O)(=O)N2CCN(Cc3ccccc3)CC2)c1`, the AC50 (as a rule, the concentration at which the activity in the assay is half-maximal) is 55.6 µM (active) in experiment [3], 3.38 µM (active) in [4] and 17.7 µM (active) in experiment [5].
Consider `CCCCN(CC)CCNC(=O)c1cc2cc3ccc(Cl)cc3nc2o1`, for which the concentration for a half-maximal effect (EC50) – broadly, the concentration needed to bring the measured effect to its halfway point – in [6] was 0.596 µM (active).
As for `Nc1c(-c2ccc(Cl)cc2)nnn1-c1ccccc1`, the EC50 was 13.2 µM (active) in the experiment on H4, 0.135 µM (inconclusive) in [1] and 0.217 µM (active) in [2].
Turning to `Oc1ccc2c(c1)OC(c1ccc(O)c(O)c1)C(O)C2` (centres undefined), at Cytochrome P450 3A4, the AC50 is 25.1 µM (inconclusive).
In the case of `COc1cccc(C2=CC(c3ccc(OC)c(OC)c3)NC(S)=N2)c1` (centres undefined), the concentration for half-maximal inhibition (IC50) (usually the concentration needed to halve the response being measured) in [7] is listed as 2.81 µM (not active).
For the compound `CC(=O)c1ccc(NC(=O)CCc2nnc3ccc(NCc4ccco4)nn23)cc1`, the 50% effective concentration (EC50) is > 112 µM (not active) in experiment [8]; > 120 µM (not active) in the experiment with H4; 11.2 µM (active) in [1]; 6.27 µM (active) in experiment [2]; > 112 µM (not active) in [9].
For `COc1ccc(OC)c(NC(=O)CSc2nc3ccccc3c3nc4ccccc4n23)c1`, the IC50 in [7] is > 50 µM (not active).
As for `Cc1ccc(NC(=O)c2ccc(S(=O)(=O)NCc3ccco3)cc2)nc1`, the EC50 with H4 is 49.7 µM (active); in experiment [1], 11.1 µM (active); in experiment [2], 15.2 µM (active).
For `COc1cccc(NC(=O)c2nnn(CCc3ccccc3)c2N)c1`, in that order: 4.53 µM (active), 6.24 µM (active) and 6.28 µM (active).
Regarding `CSCCC(NC(=O)c1ccc(Cl)cc1Cl)C(=O)NNC(=O)c1csc(N2CCOCC2)n1` (centres undefined), in experiment [10], the IC50 is > 20 µM (inactive).
Take `Cn1c(=O)c2c(nc(SCCN3CCOCC3)n2Cc2ccc(F)cc2)n(C)c1=O`: the EC50 with H4 was > 120 µM (not active); in [1], 5.27 µM (active); in experiment [2] it was 0.262 µM (active).
With `COC(=O)[C@]1(C)CC[C@@]2(C)CC[C@@]3(C)C4=CC=C5C(=CC(=O)C(O)=C5C)[C@@]4(C)CC[C@@]3(C)C2C1` (some centres undefined), the AC50 on Cytochrome P450 3A4 was 31.6 µM (inconclusive).
The same measure, in the same setting: as for `CC(=O)N1[C@H](C)C=C[C@]1(Cc1ccccc1)C(=O)O`, the figure is 31.6 µM (inconclusive).
In the case of `Fc1cccc(Cn2cc(C(=S)N3CCCCC3)c3ccccc32)c1`, the IC50 in experiment [7] was 2.86 µM (not active).
Turning to `Cc1ccc2nc(N=C(N)NS(=O)(=O)c3ccc([N+](=O)[O-])cc3)nc(C)c2c1`, the concentration giving a half-maximal response (EC50) is > 60 µM (not active) in [11] and 0.199 µM (active) in [15]. Moreover, the IC50 is 14.5 µM (active) on Fatty acid synthase [12] and 12.2 µM (active) on Fatty acid synthase [13]. In addition, in experiment [14], the half-maximal cytotoxic concentration (CC50) (commonly the concentration at which the toxic effect on the cells reaches its halfway point) is 35.2 µM (active).
On to `C=CCn1c(=O)c(C(=O)Nc2ccccc2S(N)(=O)=O)c(O)c2ccccc21`, for which the IC50 in experiment [10] was > 20 µM (inactive).
In the case of `CN(C)C(CNc1ncnc2sc3c(c12)CCCC3)c1ccco1` (centres undefined), the EC50 in experiment [6] was 3.35 µM (active).
As to `COc1ccc(S(=O)(=O)N2CCC(NC(=O)OCc3c(Cl)cccc3Cl)CC2)cc1`, the 50% inhibitory concentration (IC50) in experiment [7] is 7.91 µM (not active).
Take `CCCCCCC1=Cc2cc(OC)c(OC)cc2C(C2(C(=O)OCC)CCCC2=O)O1` (centres undefined): the AC50 at Cytochrome P450 3A4 was 3.16 µM (inconclusive).
For the compound `CCCN(CCC)C(=O)CC(c1ccccc1)c1ccc(C)cc1O` (centres undefined), the IC50 in [7] was > 50 µM (not active).
With `COC(=O)N1CC=CC1(C)C(=O)NCc1ccc(C)o1` (centres undefined), at Cytochrome P450 3A4, the concentration at half-maximal activity (AC50) is 15.8 µM (inconclusive).
Turning to `COc1ccc(C[C@H]2COC(=O)[C@@H]2Cc2ccc(OC3OC(CO)C(O)C(O)C3O)c(OC)c2)cc1OC` (some centres undefined), the half-maximal activity concentration (AC50) was 48.3 µM (active) in experiment [3], 4.43 µM (active) in experiment [4] and 15.5 µM (active) in experiment [5].
As for `Nc1ccc2c(c1)C(=O)Cc1ccccc1S2`, in experiment [10], the IC50 is > 20 µM (inactive).
For the compound `Cc1ccc(CNC(=O)C2CCCN(Cc3cnn(-c4ccccc4)c3-n3cccc3)C2)cc1` (centres undefined), the EC50 in [6] is 4.73 µM (active).
Same read-out and setting: as for `O=C(COc1ccc(Br)cc1CNC1CCCC1)Nc1ccccc1`, the figure is 5.96 µM (active); as for `CNCCc1n[nH]c(N)n1`, 0.0667 µM (active).
Turning to `O=C1c2sc3nc4ccccc4n3c2C(=O)N1c1ccccc1Cl`, the EC50 in the experiment with H4 is > 120 µM (not active); in experiment [1] it was 13.8 µM (active); in experiment [2] it was > 120 µM (not active).
Consider `COc1ccc(C(CNC(=O)c2ccccc2SC)N(C)C)cc1` (centres undefined), for which the concentration for a half-maximal effect (EC50) in experiment [6] is 0.473 µM (active).
The same measure, in the same setting: as for `COc1ccc(C(CNC(=O)Cc2ccc(Cl)c(Cl)c2)N(C)C)cc1` (centres undefined), the figure is 0.299 µM (active).
In the case of `NC(=O)c1c(NC(=O)C(=O)NCCCN2CCOCC2)sc2c1CCCC2`, in experiment [10], the IC50 is > 20 µM (inactive).
For the compound `CSCCC(c1nnnn1Cc1ccccc1)N1CCC(n2c(O)nc3ccccc32)CC1` (centres undefined), the half-maximal activity concentration (AC50) at Paired box protein Pax-8 was 0.538 µM (active).
Regarding `O=C(CSc1ccccn1)N/N=C/c1c[nH]c2ccccc12`, in experiment [7], the IC50 was > 50 µM (not active).
Regarding `C=CCSSCC=C`, on Cytochrome P450 3A4, the AC50 was 25.1 µM (inconclusive).
As for `COc1ccc(-c2cc(=O)c3c(O)cc(O)c(-c4cc(-c5cc(=O)c6c(O)cc(O)cc6o5)ccc4OC)c3o2)cc1` [ISOGINKGETIN], the AC50 on Cytochrome P450 3A4 is 3.98 µM (inconclusive).
